The structures appear in SMILES notation.

We go through two molecules from patent US20080118458A1, “Agent containing L-Carnitine or L-Carnitine derivatives and at least one other specific substance” (priority 2005, published 2008).

For experiment [1], the system named is Hepatocyte Growth Factor (HGF). Briefly: Release of HGF into the medium of organotypical cell cultures (ELISA). Type of experiment: cell-based. The note with it: 72 h; individual substance 0.01%; untreated = 100. The procedure: (§1) Hepatocyte Growth Factor (HGF) and Keratinocyte Growth Factor (KGF) are important growth factors which are released from the dermal papillae in order to control the proliferation of the hair keratinocytes. A potentially growth-promoting and hair-strengthening substance can be assumed from an increase in the factors released into the medium. The release of HGF and KGF can be quantified with the help of commercially available ELISA kits. For this, organotypical cell cultures are incubated over 72 h with the substance mixture and the concentration of the growth factors in the medium is determined in the described manner.
(ELISA stands for enzyme-linked immunosorbent assay.)

Experiment [2] has as its system Keratinocyte Growth Factor (KGF). The experiment in a line: Release of KGF into the medium of organotypical cell cultures (ELISA). Type of experiment: cell-based. The note with it: 72 h; individual substance 0.01%; untreated = 100. The procedure: as §1

On to `NCCS(=O)(=O)O` [Taurine, 2-aminoethanesulfonic acid], for which the “HGF mean [%] (standard deviation)” value in experiment [1] is listed as 120 (21) %. In experiment [2], the “KGF mean [%] (standard deviation)” value was 71 (7) %.
On the same counts, the results for `C[N+](C)(C)C[C@H](O)CC(=O)[O-].O=C(O)C(O)C(O)C(=O)O` [Carnitine tartrate, L-carnitine tartrate] are 100 (42) % and 108 (8) %.
